{"source": "patent US20230024119A1", "about": "“COMBINED USE OF SODIUM TRANS-[TETRACHLORIDOBIS(1H-INDAZOLE)RUTHENATE(III)] AND ETOMOXIR FOR TREATING CANCERS” (Bold Therapeutics, Inc., priority 2019, published 2023)", "key": {"KP1339-resistant cells": {"tested_on": "KP1339-resistant cells", "details": "upon KP1339 treatment", "description": "(§1) (also referred to herein as KP1339 or BOLD-100 or IT139). […] Lipid storage compartments (lipid droplets) were visualized fluorescently with Bodipy 493/503. Utilizing specific pharmacological inhibitors, the role of altered lipid metabolism components in KP1339 resistance was dissected. Mitochondrial oxygen consumption rate (OCR) and extracellular acidification rate (ECAR) were assessed by Seahorse XF analysis. Lipidomics and consecutive proteomics analysis were used to further characterize the resistance phenotype."}, "sensitive HCT116 cells": {"tested_on": "sensitive HCT116 cells", "description": "as §1"}, "[1]": {"tested_on": "HCT116 and Capan1 cell models with acquired KP1339 resistance", "experiment": "Sensitivity of KP1339-resistant cell models to lipid-modulating agents", "type": "cell-based", "description": "as §1"}}}
{"molecule": "[Cl][Ru]([Cl])([Cl])[Cl].[Na+].c1ccc2[nH]ncc2c1.c1ccc2[nH]ncc2c1", "note": "[KP1339, Sodium trans-[tetrachloridobis(1H-indazole)ruthenate(III)]]", "values": [{"measurement": "mitochondrial oxygen consumption rate (OCR)", "setting": "KP1339-resistant cells", "result": "stayed unchanged in resistant cells"}, {"measurement": "extracellular acidification rate (ECAR)", "setting": "sensitive HCT116 cells; Seahorse Mito Stress Test, sensitive HCT116 cells", "result": "massively reduced ECAR"}, {"measurement": "mitochondrial oxygen consumption rate (OCR)", "setting": "sensitive HCT116 cells; upon KP1339 treatment, parental cells", "result": "reduced in parental"}, {"measurement": "amount of Compound A present in the lyophilized product", "setting": "cooling the solution during the formulation process", "result": "greatly reduce the amount of Compound A"}, {"measurement": "degradation in water", "setting": "in water", "result": "can degrade in water to Compound A"}]}
{"molecule": "CCC/C=C/C/C=C/C=C/C=N/NN=O", "note": "[triacsin C]", "values": [{"measurement": "sensitivity towards lipid-modulating agents", "setting": "[1]", "result": "hypersensitive"}]}
{"molecule": "CCCCCCCCCCC[C@@H](C[C@@H]1OC(=O)[C@H]1CCCCCC)OC(=O)[C@H](CC(C)C)NC=O", "note": "[orlistat]", "values": [{"measurement": "sensitivity towards lipid-modulating agents", "setting": "[1]", "result": "hypersensitive"}]}
